For one assay, the system named is HT-1080. The assay can be described thus: Anti-proliferative activity against human tumor cell line HT1080. The format is functional, cell-based.
The test system of a further assay is MDA-MB-435. The experiment in a line: Anti-proliferative activity against human tumor cell line MDA-435. Format: functional, cell-based.
The target of assay [1] is T1, Histone deacetylase (HDAC1 and HDAC2) (Homo sapiens, UniProt Q13547+Q92769). The experiment in a line: Inhibition of human histone deacetylase (mixture of HDAC1 and HDAC2) prepared from K562 erythroleukemia cells. The format is cell-based.
T1 sequence (Q13547 whole entry, looked up): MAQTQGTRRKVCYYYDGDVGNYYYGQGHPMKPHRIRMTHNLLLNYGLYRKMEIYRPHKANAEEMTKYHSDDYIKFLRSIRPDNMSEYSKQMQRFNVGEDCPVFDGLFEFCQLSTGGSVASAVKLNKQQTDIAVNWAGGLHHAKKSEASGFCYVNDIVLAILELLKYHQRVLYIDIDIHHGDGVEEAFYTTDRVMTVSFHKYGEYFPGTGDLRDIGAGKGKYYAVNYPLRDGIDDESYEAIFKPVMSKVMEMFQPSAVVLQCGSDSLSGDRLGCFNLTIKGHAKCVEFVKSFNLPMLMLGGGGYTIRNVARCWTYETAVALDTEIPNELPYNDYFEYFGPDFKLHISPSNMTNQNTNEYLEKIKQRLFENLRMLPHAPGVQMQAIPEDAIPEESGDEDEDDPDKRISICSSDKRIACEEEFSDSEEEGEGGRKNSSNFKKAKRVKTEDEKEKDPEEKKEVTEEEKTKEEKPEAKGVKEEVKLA
T1 sequence (Q92769 whole entry, looked up): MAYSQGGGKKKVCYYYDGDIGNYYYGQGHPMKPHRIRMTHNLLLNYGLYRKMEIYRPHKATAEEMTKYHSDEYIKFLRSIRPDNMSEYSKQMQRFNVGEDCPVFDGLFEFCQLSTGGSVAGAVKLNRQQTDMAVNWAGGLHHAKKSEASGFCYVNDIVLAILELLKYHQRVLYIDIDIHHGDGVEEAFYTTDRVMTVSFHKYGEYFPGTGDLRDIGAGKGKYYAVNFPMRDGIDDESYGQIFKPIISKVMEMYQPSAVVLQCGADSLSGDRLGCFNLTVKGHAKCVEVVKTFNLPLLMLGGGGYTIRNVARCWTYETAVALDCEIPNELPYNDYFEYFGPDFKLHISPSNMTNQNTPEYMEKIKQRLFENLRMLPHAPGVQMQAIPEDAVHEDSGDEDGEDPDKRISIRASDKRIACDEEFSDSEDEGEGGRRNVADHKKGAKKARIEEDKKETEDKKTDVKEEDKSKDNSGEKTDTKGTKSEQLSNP
For assay [2], the target named is T1, Histone deacetylase (HDAC1 and HDAC2). The experiment in a line: Inhibition of human histone deacetylase (mixture of HDAC1 and HDAC2) prepared from K562 erythroleukemia cells. Particulars: concentration not given here. The format is cell-based.

As for `O=C(CCCCCCC(=O)C(F)(F)F)Nc1ccccc1`, the IC50 in the assay on HT-1080 came to 2.2 µM; in the assay with MDA-MB-435 it was 15 µM.
Regarding `O=C(CCCCCCC(=O)C(F)(F)F)Nc1cccc(-c2ccccc2)c1`, the IC50 stood at 16 µM with HT-1080, 0.38 µM in assay [1] and 23 µM in the assay with MDA-MB-435.
As to `O=C(CCCCCCCOc1ccc(-c2ccccc2)cc1)C(F)(F)F`, the inhibition in assay [2] is 72%.

For the origin of these results see ChEMBL document CHEMBL1134990, “Trifluoromethyl ketones as inhibitors of histone deacetylase” (Bioorg Med Chem Lett, 2002).
